# In patent US20220220123A1, “AMORPHOUS AND CRYSTALLINE FORMS OF RELUGOLIX” (DR. REDDY'S LABORATORIES LIMITED, priority 2019, published 2022):
# Test: storage stability of solid forms of relugolix
# Type: physicochemical
structure (smiles),measurement,setting,value
CONC(=O)Nc1ccc(-c2sc3c(c2CN(C)C)c(=O)n(-c2ccc(OC)nn2)c(=O)n3Cc2c(F)cccc2F)cc1 [amorphous relugolix],stability (found stable; in words),no storage conditions or duration printed,stable
CONC(=O)Nc1ccc(-c2sc3c(c2CN(C)C)c(=O)n(-c2ccc(OC)nn2)c(=O)n3Cc2c(F)cccc2F)cc1 [crystalline form R1],stability of the crystalline form on storage,2-8° C.,stable for at least three months
same,stability of the crystalline form on storage,25° C. and 60% RH (relative humidity),stable for at least three months
same,stability of the crystalline form on storage,40° C. and 75% RH (relative humidity),stable for at least three months
